We go through 1 molecule from PMC11962429, “Unraveling human transferrin-tryptamine interactions: a computational and biophysical approach to Alzheimer’s disease therapeutics” (Frontiers in Pharmacology, 2025).

The assay addresses T1, Human transferrin (Htf) (Homo sapiens, UniProt P02787).
T1 construct: gene TF; single-chain glycoprotein of 679 amino acids (mature plasma protein)
In words: intrinsic fluorescence quenching, modified Stern-Volmer. The format is binding. The conditions noted are these: 5 μM protein, sodium phosphate (PBS) buffer, excitation 280 nm, emission 300-400 nm, ligand 1-10 μM from DMSO stock; pH and temperature not given.

T1 sequence (P02787 20-698): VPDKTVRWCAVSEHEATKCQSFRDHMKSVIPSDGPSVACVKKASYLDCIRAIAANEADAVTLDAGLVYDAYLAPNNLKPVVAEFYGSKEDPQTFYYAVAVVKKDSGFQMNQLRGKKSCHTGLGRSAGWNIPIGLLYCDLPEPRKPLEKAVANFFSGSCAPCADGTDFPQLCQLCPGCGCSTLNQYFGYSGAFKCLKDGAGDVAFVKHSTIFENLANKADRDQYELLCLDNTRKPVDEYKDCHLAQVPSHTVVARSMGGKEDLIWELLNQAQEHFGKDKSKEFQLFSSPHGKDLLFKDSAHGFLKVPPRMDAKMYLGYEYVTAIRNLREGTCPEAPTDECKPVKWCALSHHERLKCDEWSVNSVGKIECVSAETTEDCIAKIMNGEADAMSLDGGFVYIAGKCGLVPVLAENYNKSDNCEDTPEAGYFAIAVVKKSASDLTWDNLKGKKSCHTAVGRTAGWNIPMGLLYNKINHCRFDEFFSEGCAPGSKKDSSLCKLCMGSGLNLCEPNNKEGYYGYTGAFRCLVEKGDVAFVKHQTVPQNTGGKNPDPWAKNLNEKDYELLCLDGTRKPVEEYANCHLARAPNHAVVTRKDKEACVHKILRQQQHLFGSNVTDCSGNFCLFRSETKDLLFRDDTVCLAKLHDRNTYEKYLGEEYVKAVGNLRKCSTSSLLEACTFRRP

`NCCc1c[nH]c2ccccc12` [Tryptamine] came in with a K of 480000 M⁻¹.
